Experimental data taken from US20240108734A1, “METHODS FOR TREATING AND AMELIORATING CANCER” (The Regents of the University of California, priority 2021, published 2024).
“Also recorded” adds a separate entry of the source.

Key:
TERT = assay: RNA-seq of human CD45+ cells from treated BC CML mice; format: in vivo; conditions: surviving human CD45+ cells; imetelstat compared with vehicle; p<0.01
Description: For gene expression and RNA editing analysis, RNA editing sites were identified in REDIportal^34 (see the Supplementary Appendix). […] Gene Set Enrichment Analysis was performed with the Bioconductor package GSVA (see the Supplementary Appendix)^36. For in vitro and in vivo experiments, the Student's t-test was utilized to evaluate statistical significance of normally distributed data and Wilcoxon tests were utilized for non-normally distributed data with a p value of <0.05.
FastQC (Andrews, S. & Others. FastQC: a quality control tool for high throughput sequence data. (2010) was used to perform quality control on raw fastq files. Sequencing reads were aligned to the human genome (hg19) using the STAR v2.5.1a aligner^19. RSEM^20 v1.3.0 and GENCODE annotation (genocode.v19.annotation.gtf) were used for read and transcript quantification, and R BioConductor packages edgeR^21 and Limma^22 were used to implement the limma-voom^23 method for differential expression analysis at both the gene and transcript levels. The experimental design was modeled upon disease and tissue type (˜0+disease; ˜0+tissue; ˜0+disease+tissue). Significance was defined by using an adjusted p-value cut-off of 0.05 after multiple testing correction using a moderated t-statistic in Limma. […] Gene Set Enrichment Analysis was performed with the Bioconductor package GSVA^25.
FIG. 5C. […]

beta-catenin = assay: FACS analysis of activated beta-catenin in LSC engrafted mice; format: in vivo, human; conditions: LSC engrafted mice BM; compared with vehicle controls
Description: A lentiviral TCF/LEF reporter was utilized in human blast crisis CML cells, K562^1. Lentiviral pCDH backbone, ADAR1^WT, shControl, and shADAR1 K562 stable cell lines were transduced with pGreenFire1-TCF/LEF1 reporter (SBI) lentivirus for 72-hours and analyzed using CellTiter-Glo and One-Glo luciferase assays (Promega). Mean fluorescence intensity (MFI) of activated beta-catenin in human CD45^+ cells, HSCs (CD45^+CD34^+CD38^− Lin) and HPCs (CD45^+CD34^+[…] Lin) from engrafted mouse bone marrow and spleen was analyzed with a Miltenyi Biotec MACS Quant flow cytometer after staining with lineage, CD45, CD34 and CD38 (BD antibodies) as well as LIVE/DEAD stain, followed by 1% paraformaldehyde fixation, permeabilization with saponin, and staining with an anti-active beta-catenin antibody (Millipore cat #05-665, and BD custom conjugation) (see Supplementary Appendix).
To assess WNT/beta-catenin activation in response to ADAR1 upregulation, a lentiviral TCF/LEF reporter was utilized in human blast crisis CML cells, K562^26. […] A minimum of 50,000 cells were plated in duplicate, lysed according to the manufacturer's protocol, and measured using preloaded protocols on a Promega GloMax Discover Microplate Reader. One-Glo luciferase readouts were normalized to corresponding CellTiter-Glo values. […]

ADAR1p150 = ADAR1p150 expression in human CD45+ cells from treated BC CML mice; format: in vivo; conditions: p=0.016
Description: FIG. 5G. Boxplot depicting Log 2 (cpm) expression of ADAR1p150 by RNA-seq of human CD45^+ cells isolated from vehicle (red), mismatch control (blue) and imetelstat (green) treated BC CML mouse cells. The p-values from Student's t-tests are shown (Student's t-test: vehicle: p=0.337, imetelstat tx: p=0.016).

## imetelstat
TERT
  TERT expression by RNA-seq: reduction
beta-catenin
  activated beta-catenin expression / activity by FACS: significant reduction; also recorded: significantly reduced
ADAR1p150
  ADAR1p150 expression: significantly reduced
